pIC50: −log10 of the molar value.
Assays:
Format in all cases: cell-based
[1] = Cytotoxicity against HeLa; details: human, HeLa cells, 26.0 uM highest concentration measured
[2] = test system: carbon-starved M. tuberculosis H37Rv; assay: Non-replicating IC90 determination by luciferase (carbon-starved cells); details: Mycobacterium tuberculosis, H37RV, luciferase; for IC90: non-replicating carbon-starved Mtb, three independent experiments in triplicate, read-out: TB Growth Inhibition Activity, IC90 Non-replicating_luciferase; for IC99: 120 h, None = inhibition did not reach 99%, read-out: Against carbon starved non-replicating Mtb IC99 (uM, luciferase)
[3] = Cytotoxicity against Hek 293; details: human, HEK293 cells, 26.0 uM highest concentration measured
[4] = Cytotoxicity against HepG2; details: human, HepG2 cells, 26.0 uM highest concentration measured
[5] = test system: replicating M. tuberculosis H37Rv; assay: microbe, parasite or virus in culture; details: None = inhibition did not reach 90%; for IC90: Mycobacterium tuberculosis, H37RV, read-out: Against Replicating Mtb IC90 (uM, GFP)

SMILES | pIC50 [1] | IC90 [2] [µM] | pIC50 [3] | pIC50 [4] | IC99 [2] [µM] | Against Replicating Mtb IC90 (uM, GFP) [5] | IC90 [5] [µM]
COc1ccc(CSc2nnc(-c3ccccc3)o2)cc1 | < 4.59 | 0.25 | < 4.59 | < 4.59 | – | – | –
FC(F)(F)Oc1cccc(CSc2nnc(-c3ccccc3)o2)c1 | < 4.59 | 2 | < 4.59 | < 4.59 | – | – | –
FC(F)(F)c1cccc(-c2nnc(SCc3ccccc3)o2)c1 | < 4.59 | 31 | < 4.59 | < 4.59 | – | – | –
c1ccc(CSc2nnc(-c3ccncc3)o2)cc1 | < 4.59 | 31 | < 4.59 | < 4.59 | – | – | –
c1ccc(CSc2nnc(-c3cnco3)o2)cc1 | < 4.59 | 8 | < 4.59 | < 4.59 | – | – | –
Cc1ccc(CSc2nnc(-c3ccccc3)o2)cc1 | < 4.59 | 1 | < 4.59 | < 4.59 | – | – | –
FC(F)(F)Oc1ccccc1-c1nnc(SCc2ccccc2)o1 | < 4.59 | 62 | < 4.59 | < 4.59 | – | – | –
c1ccc(-c2nnc(SCCN3CCCC3)o2)cc1 | < 4.59 | 16 | < 4.59 | < 4.59 | – | – | –
FC(F)(F)c1ccc(-c2nnc(SCc3ccccc3)o2)cc1 | < 4.59 | 1 | < 4.59 | < 4.59 | – | – | –
COc1ccc(-c2nnc(SCc3ccccc3)o2)cc1 | < 4.59 | 31 | < 4.59 | < 4.59 | – | – | –
Cc1ccccc1-c1nnc(SCc2ccccc2)o1 | < 4.59 | 16 | < 4.59 | < 4.59 | – | – | –
Clc1cccc(CSc2nnc(-c3ccccc3)o2)c1 | < 4.59 | 4 | < 4.59 | < 4.59 | – | – | –
N#Cc1ccc(CSc2nnc(-c3ccccc3)o2)cc1 | < 4.59 | 2 | < 4.59 | < 4.59 | – | – | –
c1ccc(CSc2nnc(-c3ccc(-c4ccccc4)cc3)o2)cc1 | < 4.59 | – | < 4.59 | < 4.59 | – | – | –
c1ccc(CSc2ncc(-c3ccccc3)o2)cc1 | < 4.59 | 62 | < 4.59 | < 4.59 | – | – | –
Cc1nnc(SCc2ccccc2)o1 | < 4.59 | 31 | < 4.59 | < 4.59 | – | – | –

SMILES | pIC50 [1] | IC90 [2] [µM] | pIC50 [3] | pIC50 [4] | IC99 [2] [µM] | Against Replicating Mtb IC90 (uM, GFP) [5] | IC90 [5] [µM]
COc1cccc(CSc2nnc(-c3ccccc3)o2)c1 | < 4.59 | 1 | < 4.59 | < 4.59 | – | – | –
c1ccc(CSc2nnc(-c3cc4ccccc4o3)o2)cc1 | < 4.59 | 2 | < 4.59 | < 4.59 | – | – | –
CS(=O)(=O)c1ccccc1CSc1nnc(-c2ccccc2)o1 | < 4.59 | – | < 4.59 | < 4.59 | – | – | –
O=C(Cc1ccccc1)c1nnc(-c2ccccc2)o1 | < 4.59 | 16 | < 4.59 | < 4.59 | – | – | –
FC(F)(F)CNCCSc1nnc(-c2ccccc2)o1 | < 4.59 | 250 | < 4.59 | < 4.59 | – | – | –
CCOC(=O)COc1ccc(-c2nnc(SCc3ccccn3)o2)cc1 | – | – | – | – | 31 | None | –
c1ccc(-c2nnc(SCCN3CCOCC3)o2)cc1 | < 4.59 | 250 | < 4.59 | < 4.59 | – | – | –
CS(=O)(=O)c1ccc(-c2nnc(SCc3ccccc3)o2)cc1 | < 4.59 | – | < 4.59 | < 4.59 | – | – | –
Brc1cccc(-c2nnc(SCc3ccccn3)o2)c1 [drawing 217] | – | – | – | – | 31 | – | 62
C#CCCCOc1ccc(C[S+]([O-])c2nnc(-c3ccc(F)cc3)o2)nc1 (stereo not shown) | – | – | – | – | 31 | – | 31
COCCSc1nnc(-c2ccc(C)cc2)o1 | – | – | – | – | 31 | – | 31
Fc1ccc(-c2nnc(SCc3ccccn3)o2)cc1 [drawing 215] | – | – | – | – | 62 | – | 31
c1ccc(COc2nnc(-c3ccccc3)o2)cc1 | < 4.59 | 8 | < 4.59 | < 4.59 | – | – | –
[O-][S+](Cc1ccccc1)c1nnc(-c2ccccc2)o1 (stereo not shown) [drawing 213] | – | – | – | – | 4 | – | 125
COc1ccccc1CSc1nnc(-c2ccccc2)o1 | < 4.59 | 2 | < 4.59 | < 4.59 | – | – | –

— patent publication US10301294B2, “Compounds for the treatment of tuberculosis” (priority 2013, dated 2019)
